# Assay results from patent US7034020B2, “Derivatives of butyric acid and uses thereof” (The University of Arkansas for Medical Science, priority 1999, dated 2006).
# Key:
# [1] = tested on: isotype-specific anti-ovalbumin antibody; test: Isotype-specific anti-ovalbumin antibody after a single dose of MEB, primary and secondary response; type: in vivo, C57BL/10 mice
# Experimental: C57BL/10 mice are injected ip with ovalbumin/CFA on day 0, followed by a single ip injection of saline or MEB (0.15 mmol) on Days 2 or 3. The mice are reimmunized with ovalbumin sc on Day 10. Isotype-specific anti-ovalbumin antibody generated during the primary immune response (FIG. 4A), and the secondary immune response (FIG. 4B) are measured in the serum at day 10 and day 16, respectively. (FIG. 4C). […] This experiment was repeated, and the proliferation data represents the means of the two experiments.
# The butyrate derivatives are tested for their ability to suppress lymphocyte activity in vivo. C57BL/10 mice (5 mice/group) are injected ip with 100 μg of ovalbumin in conjunction with complete Freund's adjuvant on Day 0. In one experiment, the mice also receive one ip injection per day of the butyrate derivatives (0.091 mmol) on Days 1–3. Serum samples are obtained 10 days after the initial injection with ovalbumin, and tested for the presence of anti-ovalbumin antibodies using an ELISA. To perform the ELISA 96 well plates (Costar 3595) are first incubated with ovalbumin (100 μl/well of 100 μg/ml in PBS) overnight at 4° C. The plates are then washed 4 times with PBS and 0.5% Tween 20, blocked with 1% fetal calf serum for 30 minutes at 37° C., and washed again. Individual serum samples are added (diluted 1/100 or 1/1000 in PBS), and the plates are incubated for 2 hours at 20° C. The plates were next washed 7 times with PBS/Tween, and alkaline phosphate (AP)-labeled goat anti-mouse IgG, IgA, IgM (H+L) (Zymed) is added ( 1/1000) for 1 hour at 20° C. The plates are again washed 7 times with PBS/Tween, alkaline phosphate substrate (1 mg/ml) is added. After 10 minutes, Ig levels are quantified by an ELISA reader (absorbance 405 nm). The concentration of anti-ovalbumin is determined by comparison with a standard curve obtained using mouse anti-ovalbumin antibody (Sigma; St. Louis, Mo.). To measure isotype-specific anti-ovalbumin antibodies, serum samples (diluted at 1/300 or 1/1000) are incubated on the ovalbumin-coated plates as described above. After washing, biotinylated detecting antibodies directed against mouse IgG2a (rat IgG1, clone R19–15), IgG2b (rat IgG2a, clone R12–3) IgG1 (rat IgG1, clone A85–1), or IgM (rat IgG2a, clone R6–60.2) (all purchased from PharMingen, La Jolla, Calif.) are added at 2.5 μg/ml for one hour at 20° C. followed by AP-labeled ExtrAvidin (Sigma) for one hour at 20° C. and AP substrate. Ig levels are presented as OD measurements. […]
# [2] = tested on: KLH-specific Th1 cells (clone C3); test: Cell cycle analysis (DNA content) of IL-2-stimulated Th1 cells; type: cell-based, C57BL/10 mice
# Experimental: KLH-specific, Th1 cells (clone C3) are left unstimulated (resting), or are stimulated with IL-2 (10% Con A CM) in the presence or absence of MEB (1 mM). The Th1 cells are collected after 48 hours, and assayed for DNA content.
# KLH-specific Th1 cells (clone C3) were stimulated with IL-2 (10% Con A CM) at the initiation of culture, and then again at 24, 48, and 96 hours (FIG. 8A). Some cultures also received a single dose of MEB (1 mM) at times 0, 15, 24 or 39 hours after the initiation of culture (FIGS. 8B, 8C, 8D, and 8E, respectively). The Th1 cells were collected at 0, 48, 72, 96 or 120 hours after the initiation of culture and assayed for DNA content.
# If the ability of butyrate and its derivatives to induce Th1 cell tolerance is linked to their ability to block antigen-activated Th1 cells in G1, their therapeutic importance is enhanced if MEB induces G1 cell cycle blockade regardless of when in the cell cycle the compound is added. MEB is added to cultures of IL-2-stimulated Th1 at various time points. In the absence of MEB, it is shown that approximately 50% of IL-2-activated Th1 cells have exited G1 by Day 2 (FIG. 8). I n contrast, if MEB is added at the initiation of culture, over 97% of the IL-2-stimulated Th1 cells remain in G0/G1 for the duration of the experiment (120 hours). […] If MEB is added 24 hours instead of 15 hours after IL-2 stimulation, 89% of the Th1 cells are blocked in G1 phase by 48 h, and the cell cycle profile looks very similar to that obtained if MEB is added at the initiation of culture. Finally, even if MEB is added as late as 39 hours after IL-2 stimulation, 87% of the Th1 cells (as compared to 49.9% of controls) are sequestered in G0/G1 when DNA content is measured at 72 hours.
# To examine DNA content, Th1 cells were fixed in prechilled 70% ethanol overnight at 4° C. The fixed Th1 cells were next washed in PBS, resuspended in 1 ml of staining buffer containing RNase (1 mg/ml; Sigma) and propidium iodide (50 μg/ml; Sigma), incubated for 20 minutes in the dark at 20° C., and analyzed by flow cytometry using a FACSCalibur (Becton Dickinson, Moutain View, Calif.). The data were analyzed using the ModFit DNA analysis program (Verity Software House).
# [3] = single ip dose 0.15 mmol on Day 2 or 3, serum day 10
# [4] = single ip dose 0.15 mmol on day 2, serum day 10
# [5] = single ip dose 0.15 mmol on day 2 or day 3, reimmunized Day 10, serum day 16
# [6] = single ip dose 0.15 mmol, reimmunized Day 10, serum day 16
structure (smiles),measurement,setting,value
"CCCC(=O)OCCN1CCOCC1.Cl [MEB, 2-(4-Morpholinyl)ethyl butyrate hydrochloride]","IgG2a anti-ovalbumin antibody, primary response",[1]; [3],significantly decreased
same,"IgG2b anti-ovalbumin antibody, primary response",[1]; [3],significantly decreased
same,"IgG, anti-ovalbumin antibody, primary response",[1]; [4],"decreased, albeit not dramatically"
same,"IgM anti-ovalbumin antibody, primary response",[1]; [4],"decreased, albeit not dramatically"
same,"Decrease of IgG2a anti-ovalbumin antibody, secondary response, compared to controls",[1]; [5],80%
same,"Decrease of IgG2b anti-ovalbumin antibody, secondary response, compared to controls",[1]; [5],80%
same,"IgG1 anti-ovalbumin production, secondary response",[1]; [6],significantly decreased
same,"IgM anti-ovalbumin production, secondary response",[1]; [6],unaffected
same,Th1 cells remaining in G0/G1,"[2]; IL-2 (10% Con A CM) plus MEB 1 mM, 48 hours",essentially all
same,IL-2-stimulated Th1 cells in G0/G1,"[2]; MEB 1 mM added 15 hours after IL-2, by 96 hours (control 56.9%)",79.3%
same,IL-2-stimulated Th1 cells in G1,"[2]; MEB 1 mM added 24 hours after IL-2, by 48 h",89%
same,IL-2-stimulated Th1 cells in G0/G1,"[2]; MEB 1 mM added 39 hours after IL-2, at 72 hours (control 49.9%)",87%
same,IL-2-stimulated Th1 cells in G0/G1,"[2]; MEB 1 mM added at initiation of culture, for duration of experiment (120 hours)",over 97%
